Source: US20120022045A1, “BRIDGED COMPOUNDS AS HIV INTEGRASE INHIBITORS” (priority 2009, published 2012)
Like-named read-outs stand apart in the source and are kept apart here.

Columns and labels:
Format in all cases: cell-based
[1] = test system: HIV-1 integrase mutant virus Q148R; test: Single cycle infectivity assay in HeLa P4-2 cells, integrase mutant Q148R virus; conditions: fold shift in IC50 versus wild type IIIB
Experimental: (§1) An assay for measuring the inhibition of acute HIV-1 infection with HeLa P4-2 cells in a single cycle infectivity assay was conducted using methods described in Joyce et al., J. Biol. Chem. 2002, 277: 45811, Hazuda et al., Science 2000, 287: 646, and Kimpton et al, J. Virol. 1992, 66: 2232. Proviral plasmids encoding viruses containing specific mutations in the integrase gene (N155H, Q148R, Y143R, E92Q, or G140S/Q148H) were generated by site-directed mutagenesis, and viruses were produced by transfecting 293T cells with the appropriate proviral plasmids.

[2] = test system: HIV-1 integrase mutant virus N155H; test: Single cycle infectivity assay in HeLa P4-2 cells, integrase mutant N155H virus; conditions: fold shift in IC50 versus wild type IIIB
Experimental: as §1

[3] = test system: HIV-1 integrase mutant virus G140S/Q148H; test: Single cycle infectivity assay in HeLa P4-2 cells, integrase mutant G140S/Q148H virus; conditions: fold shift in IC50 versus wild type IIIB
Experimental: as §1

HIV-1 wild type IIIB = test: Single cycle infectivity assay in HeLa P4-2 cells, wild type virus
Experimental: as §1

HIV-1 = test: Inhibition of acute HIV-1 infection of T-lymphoid cells (spread assay); conditions: 10% FBS, read-out: IC95 (nM) in the presence of 10% FBS
Experimental: Assays for the inhibition of acute HIV-1 infection of T-lymphoid cells were conducted in accordance with Vacca, J. P. et al., Proc. Natl. Acad. Sci. USA 1994, 91: 4096.

[4] = test system: HIV-1 integrase mutant virus Y143R; test: Single cycle infectivity assay in HeLa P4-2 cells, integrase mutant Y143R virus; conditions: fold shift in IC50 versus wild type IIIB
Experimental: as §1

[5] = Human immunodeficiency virus 1, T-lymphoid
[6] = Human immunodeficiency virus 1, IIIB, HeLaP4-2, wild type IIIB

| Compound | Q148R (shift) [1] [fold] | N155H (shift) [2] [fold] | G140S/Q148H (shift) [3] [fold] | IC50 (HIV-1 wild type IIIB; wild type IIIB) [nM] | IC95 (HIV-1) [nM] | Y143R (shift) [4] [fold] | IC95 (HIV-1; [5]) [nM] | IC50 (HIV-1 wild type IIIB; [6]) [nM] |
| --- | --- | --- | --- | --- | --- | --- | --- | --- |
| CC1C2CCC(N(C)C(=O)C(=O)N(C)C)(CO2)c2nc(C(=O)NCc3ccc(F)cc3)c(O)c(=O)n21 (single isomer, unassigned) [Example 27D, N-(4-{[(4-fluorobenzyl)amino]carbonyl}-5-hydroxy-8-methyl-6-oxo-10-oxa-3,7-diazatricyclo[7.2.2.0^2,7]trideca-2,4-dien-1-yl)-N,N′,N′-trimethylethanediamide] | 1 | 1 | 2 | 11 | 6.9 | 1 | – | – |
| CCC1C2CCC(N(C)C(=O)C(=O)N(C)C)(CO2)c2nc(C(=O)NCc3ccc(F)cc3)c(O)c(=O)n21 (single isomer, unassigned) [Example 25A, N-(8-ethyl-4-{[(4-fluorobenzyl)amino]carbonyl}-5-hydroxy-6-oxo-10-oxa-3,7-diazatricyclo[7.2.2.0^2,7]trideca-2,4-dien-1-yl)-N,N′,N′-trimethylethanediamide] | 1 | 1 | 1 | 14 | – | 7 | 6.3 | – |
| CN(C)C(=O)C(=O)N(C)C12CCC(CC1)Cn1c2nc(C(=O)NCc2ccc(F)cc2)c(O)c1=O (single isomer, unassigned) [Example 24A] | 5 | 4 | >111 | – | – | 1 | 11.7 | 15 |
| CC1C2CCC(N(C)C(=O)C(=O)N(C)C)(CO2)c2nc(C(=O)NCc3ccc(F)cc3)c(O)c(=O)n21 (single isomer, unassigned) [Example 27A, N-(4-{[(4-fluorobenzyl)amino]carbonyl}-5-hydroxy-8-methyl-6-oxo-10-oxa-3,7-diazatricyclo[7.2.2.0^2,7]trideca-2,4-dien-1-yl)-N,N′,N′-trimethylethanediamide] | 1 | 1 | 2 | 20 | 7.5 | 1 | – | – |
| CN(C)C(=O)C(=O)N(C)C1CCCCn2c1nc(C(=O)NCc1ccc(F)cc1)c(O)c2=O (stereo not drawn) [Compound Y, (—)N-(2-{[(4-fluorobenzyl)amino]-carbonyl}-3-hydroxy-4-oxo-4,6,7,8,9,10-hexahydropyrimido[1,2-a]azepin-10-yl)-N,N′,N′-trimethylethanediamide, reference compound] | 26 | 15 | 410 | – | – | 1 | – | 16 |
| CCN(C(=O)C(=O)N(C)C)C12CCC(OC)(CC1)Cn1c2nc(C(=O)NCc2ccc(F)cc2)c(O)c1=O [Example 16, N-Ethyl-N-(4-{[(4-fluorobenzyl)amino]carbonyl}-5-hydroxy-9-methoxy-6-oxo-3,7-diazatricyclo[7.2.2.0^2,7]trideca-2,4-dien-1-yl)-N,N′-dimethylethanediamide] | 1 | 3 | 15 | – | – | 1 | 11.3 | 15 |
| CCC1C2CCC(NC(=O)C(=O)N(C)C)(CO2)c2nc(C(=O)NCc3ccc(F)cc3)c(O)c(=O)n21 (single isomer, unassigned) [Example 26A, N′-(8-ethyl-4-{[(4-fluorobenzyl)amino]carbonyl}-5-hydroxy-6-oxo-10-oxa-3,7-diazatricyclo[7.2.2.0^2,7]trideca-2,4-dien-1-yl)-N-dimethylethanediamide] | 9 | 9 | >70 | 24 | 16.0 | 2 | – | – |
| CCC1C2CCC(N(C)C(=O)C(=O)N(C)C)(CO2)c2nc(C(=O)NCc3ccc(F)cc3)c(O)c(=O)n21 (single isomer, unassigned) [Example 25C, N-(8-ethyl-4-{[(4-fluorobenzyl)amino]carbonyl}-5-hydroxy-6-oxo-10-oxa-3,7-diazatricyclo[7.2.2.0^2,7]trideca-2,4-dien-1-yl)-N,N′,N′-trimethylethanediamide] | 4 | 6 | 88 | 6 | 10.8 | 3 | – | – |
| CCC1C2CCC(NC(=O)C(=O)N(C)C)(CO2)c2nc(C(=O)NCc3ccc(F)cc3)c(O)c(=O)n21 (single isomer, unassigned) [Example 26B, N′-(8-ethyl-4-{[(4-fluorobenzyl)amino]carbonyl}-5-hydroxy-6-oxo-10-oxa-3,7-diazatricyclo[7.2.2.0^2,7]trideca-2,4-dien-1-yl)-N-dimethylethanediamide] | 1 | 1 | 1 | 36 | 22.6 | 1 | – | – |
| CCC12CCC(NC(=O)C(=O)N(C)C)(CO1)c1nc(C(=O)NCc3ccc(F)cc3)c(O)c(=O)n1C2 (single isomer, unassigned) [Example 22A, N′-(9-ethyl-4-{[(4-fluorolbenzyl)amino]carbonyl}-5-hydroxy-6-oxo-10-oxa-3,7-diazatricyclo[7.2.2.0^2,7]trideca-2,4-dien-1-yl)-N,N-dimethylethanediamide] | 24 | 23 | 198 | 7 | – | 5 | 12.7 | – |
| CC1C2CCC(NC(=O)C(=O)N(C)C)(CO2)c2nc(C(=O)NCc3ccc(F)cc3)c(O)c(=O)n21 (single isomer, unassigned) [Example 29C, N′-(4-{[(4-Fluorobenzyl)amino]carbonyl}-5-hydroxy-8-methyl-6-oxo-10-oxa-3,7-diazatricyclo[7.2.2.0^2,7]trideca-2,4-dien-1-yl)-N-dimethylethanediamide] | 8 | 17 | 81 | 20 | 47.8 | 3 | – | – |
| CN(C)C(=O)C(=O)N(C)C12CCC(Cn3c1nc(C(=O)NCc1ccc(F)cc1)c(O)c3=O)C2 (stereo not drawn) [Example 8] | 18 | 16 | 110 | – | – | 13 | 9.2 | 13 |
| CNC(=O)C(=O)N(C)C12CCC(OC1)C(C)n1c2nc(C(=O)NCc2ccc(F)cc2)c(O)c1=O (single isomer, unassigned) [Example 28A, N-(4-{[(4-fluorobenzyl)amino]carbonyl}-5-hydroxy-8-methyl-6-oxo-10-oxa-3,7-diazatricyclo[7.2.2.0^2,7]trideca-2,4-dien-1-yl)-N,N′-dimethylethanediamide] | 1 | 3 | 4 | – | – | 1 | 17.8 | 46 |
| CNC(=O)C(=O)N(C)C12CCC(OC1)C(C)n1c2nc(C(=O)NCc2ccc(F)cc2)c(O)c1=O (single isomer, unassigned) [Example 28B, N-(4-{[(4-fluorobenzyl)amino]carbonyl}-5-hydroxy-8-methyl-6-oxo-10-oxa-3,7-diazatricyclo[7.2.2.0^2,7]trideca-2,4-dien-1-yl)-N,N′-dimethylethanediamide] | – | – | – | – | 15.9 | – | – | – |
| CC1(C)OCCn2c1nc(C(=O)NCc1ccc(F)cc1)c(O)c2=O [Compound Z, N-[(4-fluorophenyl)methyl]-3-hydroxy-9,9-dimethyl-4-oxo-4,6,7,9-tetrahydro-6H-pyrimido[2,1-c][1,4]oxazine-2-carboxamide, reference compound] | >34 | 32 | >34 | 34 | – | 1 | – | – |
| Cc1nnc(C(=O)NC(C)(C)c2nc(C(=O)NCc3ccc(F)cc3)c(O)c(=O)n2C)o1 [Compound X, raltegravir, reference compound] | 22 | 13 | 400 | – | – | 15 | – | 52 |
| CC1C2CCC(NC(=O)C(=O)N(C)C)(CO2)c2nc(C(=O)NCc3ccc(F)cc3)c(O)c(=O)n21 (single isomer, unassigned) [Example 29B, N′-(4-{[(4-Fluorobenzyl)amino]carbonyl}-5-hydroxy-8-methyl-6-oxo-10-oxa-3,7-diazatricyclo[7.2.2.0^2,7]trideca-2,4-dien-1-yl)-N-dimethylethanediamide] | 3 | 1 | 2 | 69 | – | 2 | – | – |
